Results reported in patent US20230085307A1, “PYRIDAZINONE COMPOUND AND HERBICIDE” (NISSAN CHEMICAL CORPORATION, priority 2019, published 2023).

Columns and labels:
barnyard grass [1] = assay: Test Example 3: herbicidal effect by foliage application, Wagner pot (Table 18, symbol H); assay type: in vivo, barnyard grass (Echinochloa crus-galli)
In short: (§1)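 Plants were sown in alluvial soil held under 0.1–0.5 cm standing water and grown 14 days in a greenhouse at 25–30 °C. An emulsifiable formulation, water-diluted to the set dose, was then sprayed onto the foliage, and effects were scored three weeks later using previously defined criteria.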

Chinese sprangletop = assay: Test Example 3: herbicidal effect by foliage application, Wagner pot (Table 18, symbol D); assay type: in vivo, chinese sprangletop (Leptochloa chinensis)
In short: as §1

rice flat sedge = assay: Test Example 3: herbicidal effect by foliage application, Wagner pot (Table 18, symbol E); assay type: in vivo, rice flat sedge (Cyperus iria)
In short: as §1

southern crabgrass [2] = assay: Test Example 4: herbicidal effect by soil treatment (Table 19, symbol F); assay type: in vivo, southern crabgrass (Digitaria ciliaris)
In short: (§2)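 Scoring uses the grading scale of an earlier test, three weeks post-application. Treatment consists of spraying a diluted emulsion formulation across the surface of sterilized diluvial soil in which seeds are buried near 1.5 cm deep; boxes are kept in a greenhouse between 25° C. and 30° C.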

green foxtail [3] = assay: Test Example 4: herbicidal effect by soil treatment (Table 19, symbol G); assay type: in vivo, green foxtail (Setaria viridis)
In short: as §2

barnyard grass [4] = assay: Test Example 4: herbicidal effect by soil treatment (Table 19, symbol H); assay type: in vivo, barnyard grass (Echinochloa crus-galli)
In short: as §2

wild oat [5] = assay: Test Example 4: herbicidal effect by soil treatment (Table 19, symbol I); assay type: in vivo, wild oat (Avena fatua)
In short: as §2

blackgrass [6] = assay: Test Example 4: herbicidal effect by soil treatment (Table 19, symbol J); assay type: in vivo, blackgrass (Alopecurus myosuroides)
In short: as §2

Italian ryegrass [7] = assay: Test Example 4: herbicidal effect by soil treatment (Table 19, symbol K); assay type: in vivo, Italian ryegrass (Lolium multiflorum)
In short: as §2

windgrass [8] = assay: Test Example 4: herbicidal effect by soil treatment (Table 19, symbol L); assay type: in vivo, windgrass (Apera spica-venti)
In short: as §2

velvetleaf [9] = assay: Test Example 4: herbicidal effect by soil treatment (Table 19, symbol M); assay type: in vivo, velvetleaf (Abutilon theophrasti)
In short: as §2

redroot pigweed [10] = assay: Test Example 4: herbicidal effect by soil treatment (Table 19, symbol N); assay type: in vivo, redroot pigweed (Amaranthus retroflexus)
In short: as §2

lambsquarters [11] = assay: Test Example 4: herbicidal effect by soil treatment (Table 19, symbol O); assay type: in vivo, lambsquarters (Chenopodium album)
In short: as §2

chickweed [12] = assay: Test Example 4: herbicidal effect by soil treatment (Table 19, symbol P); assay type: in vivo, common chickweed (Stellaria media)
In short: as §2

persian speedwell [13] = assay: Test Example 4: herbicidal effect by soil treatment (Table 19, symbol R); assay type: in vivo, Persian speedwell (Veronica persica)
In short: as §2

southern crabgrass [14] = assay: Test Example 5: herbicidal effect by foliage application, plastic box (Table 20, symbol F); assay type: in vivo, southern crabgrass (Digitaria ciliaris); conditions: foliage application, three weeks after application
In short: (§3)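 Post-emergence foliar test in sterilized diluvial soil. Compound applied as water-diluted emulsion at a predetermined rate to 14-day-old plants; evaluation at three weeks.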

green foxtail [15] = assay: Test Example 5: herbicidal effect by foliage application, plastic box (Table 20, symbol G); assay type: in vivo, green foxtail (Setaria viridis); conditions: foliage application, three weeks after application
In short: as §3

barnyard grass [16] = assay: Test Example 5: herbicidal effect by foliage application, plastic box (Table 20, symbol H); assay type: in vivo, barnyard grass (Echinochloa crus-galli); conditions: foliage application, three weeks after application
In short: as §3

wild oat [17] = assay: Test Example 5: herbicidal effect by foliage application, plastic box (Table 20, symbol I); assay type: in vivo, wild oat (Avena fatua); conditions: foliage application, three weeks after application
In short: as §3

blackgrass [18] = assay: Test Example 5: herbicidal effect by foliage application, plastic box (Table 20, symbol J); assay type: in vivo, blackgrass (Alopecurus myosuroides); conditions: foliage application, three weeks after application
In short: as §3

Italian ryegrass [19] = assay: Test Example 5: herbicidal effect by foliage application, plastic box (Table 20, symbol K); assay type: in vivo, Italian ryegrass (Lolium multiflorum); conditions: foliage application, three weeks after application
In short: as §3

windgrass [20] = assay: Test Example 5: herbicidal effect by foliage application, plastic box (Table 20, symbol L); assay type: in vivo, windgrass (Apera spica-venti); conditions: foliage application, three weeks after application
In short: as §3

velvetleaf [21] = assay: Test Example 5: herbicidal effect by foliage application, plastic box (Table 20, symbol M); assay type: in vivo, velvetleaf (Abutilon theophrasti); conditions: foliage application, three weeks after application
In short: as §3

redroot pigweed [22] = assay: Test Example 5: herbicidal effect by foliage application, plastic box (Table 20, symbol N); assay type: in vivo, redroot pigweed (Amaranthus retroflexus); conditions: foliage application, three weeks after application
In short: as §3

lambsquarters [23] = assay: Test Example 5: herbicidal effect by foliage application, plastic box (Table 20, symbol O); assay type: in vivo, lambsquarters (Chenopodium album); conditions: foliage application, three weeks after application
In short: as §3

chickweed [24] = assay: Test Example 5: herbicidal effect by foliage application, plastic box (Table 20, symbol P); assay type: in vivo, common chickweed (Stellaria media); conditions: foliage application, three weeks after application
In short: as §3

false cleavers = assay: Test Example 5: herbicidal effect by foliage application, plastic box (Table 20, symbol Q); assay type: in vivo, false cleavers (Galium spurium); conditions: foliage application, three weeks after application
In short: as §3

persian speedwell [25] = assay: Test Example 5: herbicidal effect by foliage application, plastic box (Table 20, symbol R); assay type: in vivo, Persian speedwell (Veronica persica); conditions: foliage application, three weeks after application
In short: as §3

## COc1nn(C)c(=O)c(-c2c(-c3ccc(F)c(F)c3)sc3ccccc23)c1O [1-172]
Barnyard grass [1]; 320 g/ha
  herbicidal effect on H (barnyard grass), rating 0-5: 0 (Herbicidal rate of 5% or less (almost no effect))
Chinese sprangletop; 320 g/ha
  herbicidal effect on D (Chinese sprangletop), rating 0-5: 0 (Herbicidal rate of 5% or less (almost no effect))
Rice flat sedge; 320 g/ha
  herbicidal effect on E (rice flat sedge), rating 0-5: 5 (Herbicidal rate of 90% or more (almost completely withered))
Southern crabgrass [2]; AAH 320 g/ha
  F: southern crabgrass, herbicidal effect rating: 2 (Herbicidal rate of 20% or more and less than 40%)
Green foxtail [3]; AAH 320 g/ha
  G: green foxtail, herbicidal effect rating: 5 (Herbicidal rate of 90% or more (almost completely withered))
Barnyard grass [4]; AAH 320 g/ha
  H: barnyard grass, herbicidal effect rating: 0 (Herbicidal rate of 5% or less (almost no effect))
Wild oat [5]; AAH 320 g/ha
  I: wild oat, herbicidal effect rating: 0 (Herbicidal rate of 5% or less (almost no effect))
Blackgrass [6]; AAH 320 g/ha
  J: blackgrass, herbicidal effect rating: 0 (Herbicidal rate of 5% or less (almost no effect))
Italian ryegrass [7]; AAH 320 g/ha
  K: Italian ryegrass, herbicidal effect rating: 1 (Herbicidal rate of 5% or more and less than 20%)
Windgrass [8]; AAH 320 g/ha
  L: windgrass, herbicidal effect rating: 0 (Herbicidal rate of 5% or less (almost no effect))
Velvetleaf [9]; AAH 320 g/ha
  M: velvetleaf, herbicidal effect rating: 1 (Herbicidal rate of 5% or more and less than 20%)
Redroot pigweed [10]; AAH 320 g/ha
  N: redroot pigweed, herbicidal effect rating: 5 (Herbicidal rate of 90% or more (almost completely withered))
Lambsquarters [11]; AAH 320 g/ha
  O: lambsquarters, herbicidal effect rating: 5 (Herbicidal rate of 90% or more (almost completely withered))
Chickweed [12]; AAH 320 g/ha
  P: chickweed, herbicidal effect rating: 5 (Herbicidal rate of 90% or more (almost completely withered))
Persian speedwell [13]; AAH 320 g/ha
  R: persian speedwell, herbicidal effect rating: 5 (Herbicidal rate of 90% or more (almost completely withered))
Southern crabgrass [14]; AAH 320 g/ha
  F: southern crabgrass, herbicidal effect: 0 (Herbicidal rate of 5% or less (almost no effect))
Green foxtail [15]; AAH 320 g/ha
  G: green foxtail, herbicidal effect: 4 (Herbicidal rate of 70% or more and less than 90%)
Barnyard grass [16]; AAH 320 g/ha
  H: barnyard grass, herbicidal effect: 0 (Herbicidal rate of 5% or less (almost no effect))
Wild oat [17]; AAH 320 g/ha
  I: wild oat, herbicidal effect: 0 (Herbicidal rate of 5% or less (almost no effect))
Blackgrass [18]; AAH 320 g/ha
  J: blackgrass, herbicidal effect: 0 (Herbicidal rate of 5% or less (almost no effect))
Italian ryegrass [19]; AAH 320 g/ha
  K: Italian ryegrass, herbicidal effect: 3 (Herbicidal rate of 40% or more and less than 70%)
Windgrass [20]; AAH 320 g/ha
  L: windgrass, herbicidal effect: 0 (Herbicidal rate of 5% or less (almost no effect))
Velvetleaf [21]; AAH 320 g/ha
  M: velvetleaf, herbicidal effect: 3 (Herbicidal rate of 40% or more and less than 70%)
Redroot pigweed [22]; AAH 320 g/ha
  N: redroot pigweed, herbicidal effect: 5 (Herbicidal rate of 90% or more (almost completely withered))
Lambsquarters [23]; AAH 320 g/ha
  O: lambsquarters, herbicidal effect: 5 (Herbicidal rate of 90% or more (almost completely withered))
Chickweed [24]; AAH 320 g/ha
  P: chickweed, herbicidal effect: 5 (Herbicidal rate of 90% or more (almost completely withered))
False cleavers; AAH 320 g/ha
  Q: false cleavers, herbicidal effect: 5 (Herbicidal rate of 90% or more (almost completely withered))
Persian speedwell [25]; AAH 320 g/ha
  R: persian speedwell, herbicidal effect: 5 (Herbicidal rate of 90% or more (almost completely withered))

## CCCC(=O)Oc1c(OC)nn(C)c(=O)c1-c1c(-c2ccc(OC)c(OC)c2)sc2ccccc12 [1-183]
Barnyard grass [1]; 80 g/ha
  herbicidal effect on H (barnyard grass), rating 0-5: 3 (Herbicidal rate of 40% or more and less than 70%)
Chinese sprangletop; 80 g/ha
  herbicidal effect on D (Chinese sprangletop), rating 0-5: 2 (Herbicidal rate of 20% or more and less than 40%)
Rice flat sedge; 80 g/ha
  herbicidal effect on E (rice flat sedge), rating 0-5: 0 (Herbicidal rate of 5% or less (almost no effect))
Southern crabgrass [2]; AAH 80 g/ha
  F: southern crabgrass, herbicidal effect rating: 0 (Herbicidal rate of 5% or less (almost no effect))
Green foxtail [3]; AAH 80 g/ha
  G: green foxtail, herbicidal effect rating: 0 (Herbicidal rate of 5% or less (almost no effect))
Barnyard grass [4]; AAH 80 g/ha
  H: barnyard grass, herbicidal effect rating: 0 (Herbicidal rate of 5% or less (almost no effect))
Wild oat [5]; AAH 80 g/ha
  I: wild oat, herbicidal effect rating: 0 (Herbicidal rate of 5% or less (almost no effect))
Blackgrass [6]; AAH 80 g/ha
  J: blackgrass, herbicidal effect rating: 0 (Herbicidal rate of 5% or less (almost no effect))
Italian ryegrass [7]; AAH 80 g/ha
  K: Italian ryegrass, herbicidal effect rating: 0 (Herbicidal rate of 5% or less (almost no effect))
Windgrass [8]; AAH 80 g/ha
  L: windgrass, herbicidal effect rating: 0 (Herbicidal rate of 5% or less (almost no effect))
Velvetleaf [9]; AAH 80 g/ha
  M: velvetleaf, herbicidal effect rating: 0 (Herbicidal rate of 5% or less (almost no effect))
Redroot pigweed [10]; AAH 80 g/ha
  N: redroot pigweed, herbicidal effect rating: 0 (Herbicidal rate of 5% or less (almost no effect))
Lambsquarters [11]; AAH 80 g/ha
  O: lambsquarters, herbicidal effect rating: 0 (Herbicidal rate of 5% or less (almost no effect))
Chickweed [12]; AAH 80 g/ha
  P: chickweed, herbicidal effect rating: 3 (Herbicidal rate of 40% or more and less than 70%)
Persian speedwell [13]; AAH 80 g/ha
  R: persian speedwell, herbicidal effect rating: 4 (Herbicidal rate of 70% or more and less than 90%)
Southern crabgrass [14]; AAH 80 g/ha
  F: southern crabgrass, herbicidal effect: 1 (Herbicidal rate of 5% or more and less than 20%)
Green foxtail [15]; AAH 80 g/ha
  G: green foxtail, herbicidal effect: 4 (Herbicidal rate of 70% or more and less than 90%)
Barnyard grass [16]; AAH 80 g/ha
  H: barnyard grass, herbicidal effect: 4 (Herbicidal rate of 70% or more and less than 90%)
Wild oat [17]; AAH 80 g/ha
  I: wild oat, herbicidal effect: 0 (Herbicidal rate of 5% or less (almost no effect))
Blackgrass [18]; AAH 80 g/ha
  J: blackgrass, herbicidal effect: 0 (Herbicidal rate of 5% or less (almost no effect))
Italian ryegrass [19]; AAH 80 g/ha
  K: Italian ryegrass, herbicidal effect: 1 (Herbicidal rate of 5% or more and less than 20%)
Windgrass [20]; AAH 80 g/ha
  L: windgrass, herbicidal effect: 0 (Herbicidal rate of 5% or less (almost no effect))
Velvetleaf [21]; AAH 80 g/ha
  M: velvetleaf, herbicidal effect: 1 (Herbicidal rate of 5% or more and less than 20%)
Redroot pigweed [22]; AAH 80 g/ha
  N: redroot pigweed, herbicidal effect: 3 (Herbicidal rate of 40% or more and less than 70%)
Lambsquarters [23]; AAH 80 g/ha
  O: lambsquarters, herbicidal effect: 3 (Herbicidal rate of 40% or more and less than 70%)
Chickweed [24]; AAH 80 g/ha
  P: chickweed, herbicidal effect: 4 (Herbicidal rate of 70% or more and less than 90%)
False cleavers; AAH 80 g/ha
  Q: false cleavers, herbicidal effect: 2 (Herbicidal rate of 20% or more and less than 40%)
Persian speedwell [25]; AAH 80 g/ha
  R: persian speedwell, herbicidal effect: 5 (Herbicidal rate of 90% or more (almost completely withered))
